Test results published in ChEMBL document CHEMBL4616607, “3D proteome-wide scale screening and activity evaluation of a new ALKBH5 inhibitor in U87 glioblastoma cell line” (Bioorg Med Chem, 2020).
Activity calls are given as the source filed them. The calls are words filed in the database; no cut-off is given here.

How the values were obtained:
U-87 MG [1] = test: Antiinvasive activity against human U87MG cells assessed as reduction in cell invasion measured after 24 hrs using Diff-quick staining by light microscopy based Boyden chamber assay; assay type: functional, U-87MG ATCC
[2] = molecular target: RNA demethylase ALKBH5 (Homo sapiens) (UniProt Q6P6C2); test: Inhibition of human recombinant ALKBH5 demethylase activity assessed as increase in methylated 6A-RNA level at 10 to 25 uM incubated for 30 min by dot blot analysis relative to control
U-87 MG [3] = test: Cytotoxicity against human U87MG cells assessed as effect on cell viability at 1 to 50 uM measured after 24 hrs by SRB assay; assay type: functional, cell-based; settings: U-87MG ATCC
NCI-H460 [4] = test: Cytotoxicity against human H460 cells assessed as effect on cell viability at 1 to 50 uM measured after 24 hrs by SRB assay; assay type: functional, cell-based
A549 [5] = test: Cytotoxicity against human A549 cells assessed as reduction in cell viability measured after 24 hrs by MTT assay; assay type: functional, cell-based
U-87 MG [6] = test: Antimigratory activity against human U87MG cells assessed as inhibition of cell migration measured after 6 hrs by scratch wound healing assay; assay type: functional, cell-based, U-87MG ATCC
U-87 MG [7] = test: Effect on CD73 mRNA expression in human U87MG cells at 10 to 25 uM measured after 1 to 6 hrs by RT-PCR analysis; assay type: functional, cell-based; settings: U-87MG ATCC
A549 [8] = test: Antiinvasive activity against human A549 cells assessed as reduction in cell invasion measured after 24 hrs using Diff-quick staining by light microscopy based Boyden chamber assay; assay type: functional
A549 [9] = test: Antimigratory activity against human A549 cells assessed as reduction in cell migration at 25 uM measured after 24 hrs by scratch wound healing assay; assay type: functional, cell-based
U-87 MG [10] = test: Antiinvasive activity against human U87MG cells assessed as reduction in cell invasion at 25 to 50 uM measured after 24 hrs using Diff-quick staining by light microscopy based Boyden chamber assay relative to control; assay type: functional, U-87MG ATCC; set-up: scale not given: the % may be the effect or the level left
[11] = molecular target: RNA demethylase ALKBH5 (Homo sapiens) (UniProt Q6P6C2); test: Inhibition of ALKBH5 demethylase activity in human U87MG cells assessed as decrease in CD73 expression at 10 uM measured after 2 hrs by Western blot analysis; assay type: cell-based; settings: U-87MG ATCC
U-87 MG [12] = test: Cytotoxicity against human U87MG cells assessed as effect on cell viability at 1 to 50 uM measured after 24 hrs by MTT assay; assay type: functional, cell-based; settings: U-87MG ATCC
[13] = molecular target: RNA demethylase ALKBH5 (Homo sapiens) (UniProt Q6P6C2); test: Inhibition of human recombinant ALKBH5 demethylase activity assessed as increase in methylated 6A-RNA level incubated for 30 min by dot blot analysis
A549 [14] = test: Cytotoxicity against human A549 cells assessed as reduction in cell viability after 24 hrs by SRB assay; assay type: functional, cell-based
NCI-H460 [15] = test: Antiinvasive activity against human H460 cells assessed as reduction in cell invasion measured after 24 hrs using Diff-quick staining by light microscopy based Boyden chamber assay; assay type: functional
NCI-H460 [16] = test: Cytotoxicity against human H460 cells assessed as effect on cell viability at 1 to 50 uM measured after 24 hrs by MTT assay; assay type: functional, cell-based
[17] = molecular target: RNA demethylase ALKBH5 (Homo sapiens) (UniProt Q6P6C2); test: Inhibition of ALKBH5 demethylase activity in human U87MG cells assessed as decrease in CD73 expression measured after 1 to 24 hrs by Western blot analysis; assay type: cell-based; settings: U-87MG ATCC
NCI-H460 [18] = test: Antimigratory activity against human H460 cells assessed as inhibition of cell migration measured after 24 hrs by scratch wound healing assay; assay type: functional, cell-based
[19] = molecular target: RNA demethylase ALKBH5 (Homo sapiens) (UniProt Q6P6C2); test: Inhibition of ALKBH5 demethylase activity in human U87MG cells assessed as decrease in CD73 expression at 10 uM measured after 1 hr by Western blot analysis; assay type: cell-based; settings: U-87MG ATCC

Chain of RNA demethylase ALKBH5 (Homo sapiens) (Q6P6C2 2-394 limits assumed): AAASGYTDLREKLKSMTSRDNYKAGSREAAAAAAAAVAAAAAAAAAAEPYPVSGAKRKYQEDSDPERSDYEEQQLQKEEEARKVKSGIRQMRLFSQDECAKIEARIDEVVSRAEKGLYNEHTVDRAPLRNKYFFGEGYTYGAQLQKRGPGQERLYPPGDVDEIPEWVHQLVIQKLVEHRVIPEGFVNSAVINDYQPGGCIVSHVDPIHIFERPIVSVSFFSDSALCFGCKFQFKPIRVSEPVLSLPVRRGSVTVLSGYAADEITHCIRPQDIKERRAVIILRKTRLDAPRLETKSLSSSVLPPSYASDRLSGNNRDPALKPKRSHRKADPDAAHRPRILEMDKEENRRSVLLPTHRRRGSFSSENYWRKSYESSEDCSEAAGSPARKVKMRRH

CCCc1c(C)nc2c3ccccc3oc(=S)n12
IC50 (U-87 MG [1]): 2.48 µM | Activity (U-87 MG [1]; U-87MG ATCC): Dose-dependent effect | fold change (FC) [2]: 3 | Activity (U-87 MG [3]): inactive | Activity (NCI-H460 [4]): inactive | Activity (A549 [5]): Dose-dependent effect | IC50 (U-87 MG [6]): 11 µM | inhibition (U-87 MG [6]; U-87MG ATCC): Dose-dependent effect | Activity (U-87 MG [7]): inactive | Activity (A549 [8]): Dose-dependent effect | IC50 (A549 [8]; A549, 24 h): 26.2 µM | Activity (A549 [9]): inactive | Activity (U-87 MG [10]): 90% | inhibition [11]: Active | Activity (U-87 MG [12]): inactive | inhibition [13]: Dose-dependent effect | Activity (A549 [14]): Dose-dependent effect | Activity (NCI-H460 [15]): Dose-dependent effect | IC50 (NCI-H460 [15]; NCI-H460, 24 h): 17.8 µM | Activity (NCI-H460 [16]): inactive | inhibition [17]: Dose-dependent effect | inhibition (NCI-H460 [18]): Dose-dependent effect | IC50 (NCI-H460 [18]; NCI-H460, 24 h): 10.1 µM | inhibition [19]: Active

NC1=N[C@H](O)[C@H]2[C@H]3O[C@]4(O)O[C@@H]([C@@H](O)[C@@]2(N1)[C@@H]4O)[C@]3(O)CO
Activity (NCI-H460 [15]): Dose-dependent effect
